Counter-ions that a name gives are not always drawn.
Tested on: mice
Assay: SmartCube in vivo neuropharmacological behavioral assay
Conditions: for minimal effective dose: Mus musculus, ip, dose having 50% or more total activity in SmartCube, i.p., read-out: MED (minimal effective dose); for AD: antidepressant, percent probability / AG: analgesic, percent probability / AP: antipsychotic, percent probability / AX: anxiolytic, percent probability / CE: cognitive enhancer, percent probability / HA: hallucinogenic, percent probability / MS: mood stabilizer, percent probability / PS, percent probability / SD: sedative hypnotic, percent probability / SE: side effects, percent probability / UN: uncharacterized CNS activity, percent probability / XG: anxiogenic, percent probability: SmartCube, i.p. 15 min before test, at the MED
Experimental: The compounds were evaluated for their CNS related properties (e.g., the treatment, prevention or diagnosis of CNS or CNS-related disorders and/or amelioration of symptoms) using neuropharmacological screening methods described in S. L. Roberts et al., Front. Neurosci. 2011, 5:103 (hereinafter referred to as “Roberts,” the contents of which are incorporated herein by reference in their entirety).
According to Roberts, intact systems are useful in detecting improvement in disease-relevant endpoints, because psychiatric diseases generally result from disorders of cell-cell communication or circuitry. The endpoints are typically behavioral in nature, often requiring human observation and interpretation. In order to test multiple compounds for behavioral effects relevant to neurological and psychiatric diseases and disorders, PsychoGenics, Inc. (Paramus, N.J. “PGI”) developed SmartCube®, an automated system in which behaviors of compound-treated mice are captured by digital video and analyzed with computer algorithms to facilitate testing of multiple compounds for behavioral effects relevant to psychiatric disease. (D. Brunner et al., Drug Discov. Today 2002, 7:S107-S112; Alexandrov et al., Eur. J. Pharmacol. 2015, 753:127-134; the contents of each of which are incorporated herein by reference in their entirety).
The SmartCube® system is described in Example 2.2 of U.S. Pat. No. 9,758,529 and Example 289 of WIPO Publication No. WO2018/023070, the contents of each of which are incorporated herein by reference in their entirety.
According to the present disclosure, compounds identified may be evaluated using the SmartCube® system. The results of such analysis correlate certain patterns or combinations of behaviors to CNS effects along a percent probability scale of 0-100 where zero (O) reflects the limit of quantitation (LOQ).
The compounds of the present disclosure were evaluated for their CNS related properties (e.g., the treatment, prevention or diagnosis of CNS or CNS-related disorders and/or amelioration of symptoms) using neuropharmacological screening methods described in S. L. Roberts et al., Front. Neurosci. 2011, 5:103 (hereinafter referred to as “Roberts,” the contents of which are incorporated herein by reference in their entirety).
The SmartCube® system described herein was utilized to compare the behavioral signature of a test compound to a database of behavioral signatures obtained using a large set of diverse reference compounds (including but not limited to antipsychotics, anxiolytics, antidepressants and bipolar disorder medicine), thereby predicting the neuropharmacological effects of a test compound by similarity to major classes of compounds. It produces an activity signature indicating the probability that the activity of the test compound at the administered dose matches a given class of neuropharmacological agents. The test compound is simultaneously compared against multiple classes of agents; thus, a separate probability is generated for each behavioral effect measured (such as but not limited to anxiolytic activity and analgesic activity).
The compounds of the present disclosure were dissolved in a mixture of Pharmasolve™ (N-methyl-2-pyrrolidone (NMP)) and were injected i.p. 15 min. before the behavioral test. For each compound, injections were administered at different dose levels (e.g., 0.3, 1, 3, 10 and 30 mg per kg (mpk)). A compound's minimal effective dose (MED; see Table 3) is a measure of the compound's potency. The MED was defined as the dose (in mpk) having 50% or more total activity in SmartCube®. For each behavioral effect measured, results at the MED are presented. CNS activities of the compounds were recorded (see Table 2). In Table 1, a key to the percent probabilities (probability×100) for each behavioral effect (“X”) are defined provided, where LOQ is the limit of quantification.

SMILES	minimal effective dose	AD: antidepressant, percent probability	AG: analgesic, percent probability	AP: antipsychotic, percent probability	AX: anxiolytic, percent probability	CE: cognitive enhancer, percent probability	HA: hallucinogenic, percent probability	MS: mood stabilizer, percent probability	PS, percent probability	SD: sedative hypnotic, percent probability	SE: side effects, percent probability	UN: uncharacterized CNS activity, percent probability	XG: anxiogenic, percent probability
COc1cccc2c1C1C=CC2N1 (stereo not drawn) [Compound 16, 3-Methoxy-11-azatricyclo[6.2.1.0^2,7]undeca-2,4,6,9-tetraene hydrochloride]	> 30 mg/kg	+ (LOQ ≤ X < 5%)	+ (LOQ ≤ X < 5%)	+ (LOQ ≤ X < 5%)	++ (5% ≤ X < 25%)	+ (LOQ ≤ X < 5%)	+ (LOQ ≤ X < 5%)	+ (LOQ ≤ X < 5%)	+ (LOQ ≤ X < 5%)	+ (LOQ ≤ X < 5%)	+ (LOQ ≤ X < 5%)	++ (5% ≤ X < 25%)	+ (LOQ ≤ X < 5%)
Clc1cccc2c1C1C=CC2N1 (stereo not drawn) [Compound 11, 3-Chloro-11-azatricyclo[6.2.1.0^2,7]undeca-2,4,6,9-tetraene hydrochloride]	> 30 mg/kg	+ (LOQ ≤ X < 5%)	+ (LOQ ≤ X < 5%)	+ (LOQ ≤ X < 5%)	++ (5% ≤ X < 25%)	++ (5% ≤ X < 25%)	+ (LOQ ≤ X < 5%)	+ (LOQ ≤ X < 5%)	+ (LOQ ≤ X < 5%)	+ (LOQ ≤ X < 5%)	+ (LOQ ≤ X < 5%)	++ (5% ≤ X < 25%)	+ (LOQ ≤ X < 5%)
CC(C)C(C)N1C2C=CC1c1ccccc12 (stereo not drawn) [Compound 58, 11-(3-Methylbutan-2-yl)-11-azatricyclo[6.2.1.0^2,7]undeca-2,4,6,9-tetraene hydrochloride]	> 30 mg/kg	++ (5% ≤ X < 25%)	+ (LOQ ≤ X < 5%)	+ (LOQ ≤ X < 5%)	+ (LOQ ≤ X < 5%)	+ (LOQ ≤ X < 5%)	+ (LOQ ≤ X < 5%)	+ (LOQ ≤ X < 5%)	+ (LOQ ≤ X < 5%)	+ (LOQ ≤ X < 5%)	+ (LOQ ≤ X < 5%)	+ (LOQ ≤ X < 5%)	+ (LOQ ≤ X < 5%)
COc1ccc2c(c1)C1CCC2N1C(C)C (stereo not drawn) [Compound 35, 4-Methoxy-11-(propan-2-yl)-11-azatricyclo[6.2.1.0^2,7]undeca-2,4,6-triene]	1 to 10 mg/kg	+ (LOQ ≤ X < 5%)	+ (LOQ ≤ X < 5%)	+ (LOQ ≤ X < 5%)	++ (5% ≤ X < 25%)	+ (LOQ ≤ X < 5%)	+ (LOQ ≤ X < 5%)	+ (LOQ ≤ X < 5%)	+ (LOQ ≤ X < 5%)	+++ (25% ≤ X < 50%)	+ (LOQ ≤ X < 5%)	++ (5% ≤ X < 25%)	+ (LOQ ≤ X < 5%)
c1ccc2c(c1)C1CCC2N1C1CC1 [Compound 45, 11-Cyclopropyl-11-azatricyclo[6.2.1.0^2,7]undeca-2,4,6-triene hydrochloride]	10 to 30 mg/kg	++ (5% ≤ X < 25%)	++ (5% ≤ X < 25%)	++ (5% ≤ X < 25%)	++ (5% ≤ X < 25%)	++ (5% ≤ X < 25%)	+ (LOQ ≤ X < 5%)	+ (LOQ ≤ X < 5%)	+ (LOQ ≤ X < 5%)	+ (LOQ ≤ X < 5%)	+ (LOQ ≤ X < 5%)	++ (5% ≤ X < 25%)	+ (LOQ ≤ X < 5%)
CC[C@@H](C)N1C2CCC1c1ccccc12 [Compound 33, 11-[(2R)-Butan-2-yl]-11-azatricyclo[6.2.1.0^2,7]undeca-2,4,6-triene hydrochloride]	1 to 10 mg/kg	+ (LOQ ≤ X < 5%)	+ (LOQ ≤ X < 5%)	+ (LOQ ≤ X < 5%)	++ (5% ≤ X < 25%)	+ (LOQ ≤ X < 5%)	+ (LOQ ≤ X < 5%)	+ (LOQ ≤ X < 5%)	++ (5% ≤ X < 25%)	+ (LOQ ≤ X < 5%)	+ (LOQ ≤ X < 5%)	++++ (50% ≤ X <1 00%)	+ (LOQ ≤ X < 5%)
c1ccc2c(c1)C1CCC2N1C1CCCC1 [Compound 43, 11-Cyclopentyl-11-azatricyclo[6.2.1.0^2,7]undeca-2,4,6-triene hydrochloride]	10 to 30 mg/kg	++++ (50% ≤ X <1 00%)	+ (LOQ ≤ X < 5%)	+ (LOQ ≤ X < 5%)	++ (5% ≤ X < 25%)	+ (LOQ ≤ X < 5%)	+ (LOQ ≤ X < 5%)	+ (LOQ ≤ X < 5%)	++ (5% ≤ X < 25%)	+ (LOQ ≤ X < 5%)	+ (LOQ ≤ X < 5%)	++ (5% ≤ X < 25%)	+ (LOQ ≤ X < 5%)
CC(C)N1C2CCC1c1cc(Cl)ccc12 (stereo not drawn) [Compound 28, 4-Chloro-11-(propan-2-yl)-11-azatricyclo[6.2.1.0^2,7]undeca-2,4,6-triene hydrochloride]	> 30 mg/kg	+++ (25% ≤ X < 50%)	+ (LOQ ≤ X < 5%)	+ (LOQ ≤ X < 5%)	++ (5% ≤ X < 25%)	+ (LOQ ≤ X < 5%)	+ (LOQ ≤ X < 5%)	+ (LOQ ≤ X < 5%)	+ (LOQ ≤ X < 5%)	+ (LOQ ≤ X < 5%)	++ (5% ≤ X < 25%)	++ (5% ≤ X < 25%)	+ (LOQ ≤ X < 5%)
CCC(C)N1C2CCC1c1ccccc12 (stereo not drawn) [Compound 44, 11-(Butan-2-yl)-11-azatricyclo[6.2.1.0^2,7]undeca-2,4,6-triene hydrochloride]	1 to 10 mg/kg	++++ (50% ≤ X <1 00%)	+ (LOQ ≤ X < 5%)	+ (LOQ ≤ X < 5%)	++ (5% ≤ X < 25%)	+ (LOQ ≤ X < 5%)	+ (LOQ ≤ X < 5%)	+ (LOQ ≤ X < 5%)	++ (5% ≤ X < 25%)	+ (LOQ ≤ X < 5%)	+ (LOQ ≤ X < 5%)	+ (LOQ ≤ X < 5%)	+ (LOQ ≤ X < 5%)
